Where two headings read alike, the source gives them in different places.
Columns and labels:
NLRP3 inflammasome = target: T1, NLRP3 inflammasome (Homo sapiens, UniProt Q96P20); experiment: Inhibitory activity of NLRP3 inflammasome in human monocytes (THP-1 cells, LPS + Nigericin, IL-1β ELISA); format: cell-based
T1 construct: host or cells: THP-1 cells
Protocol: 1. Determination of inhibitory activity of NLRP3 inflammasome in human monocytes
Experimental method: THP-1 cells were cultured in RPMI culture medium containing PMA (10 µM), and then inoculated in 48-well plates at a density of 2×10^5 cells/mL, the plates were incubated overnight in a 5% CO2 incubator at 37°C. The next day, the above culture medium was replaced with Opti-MEM culture medium containing 1 µg/mL LPS. After 3 hours, the grown cells were simulated for 40 min with a drug, and then simulated for 40 min with Nigericin (10 µM), and a cell supernatant was harvested for ELISA analysis.
Table 2 Inhibitory activity of NLRP3 inflammasome

[1] = Pharmacokinetic evaluation in Balb/c mice; format: in vivo; conditions: mouse, in vivo, 5 mg/kg
Description: 4. Pharmacokinetic evaluation of compounds in Balb/c mice
Experimental purpose: to understand pharmacokinetic properties of the compounds.
Experimental basis: Technical Guidelines for Nonclinical Pharmacokinetic Studies of Chemical Drugs, 2014.
Experimental protocol: the pharmacokinetic properties of the compounds were investigated via intravenous administration and intragastric administration in Balb/c mice.
The blood drug concentration was quantitatively analyzed by LC-MS/MS, and pharmacokinetic parameters were calculated, such as peak concentration (Cmax), area under the concentration-time curve (AUC(0-t)), half-life (T1/2), clearance (CL), volume of distribution at steady state (Vdss), and bioavailability (F).
The results of pharmacokinetic evaluation are shown in Table 5 below: Table 5 Pharmacokinetic test results of compounds in Balb/c mice

[2] = In vivo brain-to-plasma ratio in mice; conditions: for Brain / Plasma: male mice, oral 10 mg/kg
Protocol: Evaluation of in vivo brain-to-plasma ratio of compound
Experimental purpose: to obtain the brain-to-plasma ratio of the compound
Experimental protocol: the brain-to-plasma ratio of the compound was investigated by monitoring the content of the compound in mouse brain and plasma.
Experimental procedure: the compound was weighed, followed by adding a small amount of DMSO and adding a sodium chloride solution for injection, to prepare a 10 mg · mL^-1 compound solution for administration. Male mice were orally administered at 10 mg · kg^-1, and whole plasma and whole brain tissue were sampled at 1 h and 6 h after administration (n=3). […] A centrifuge tube was weighed as M1, the centrifuge tube containing the whole brain tissue was weighed as M2, the centrifuge tube containing water for homogenization was weighed as M3, and the centrifuge tube after the removal of 30 µL homogenate was weighed as M4.
Standard curve range: 10-10,000 ng·mL^-1. Content of drug in brain = measured value × 0.03 × (M3−M1)/[(M2−M1)×(M3−M4)].

[3] = target: hERG potassium ion channel (Homo sapiens, UniProt Q12809); experiment: Inhibition of hERG potassium ion channel (CHO cells stably expressing hERG, Qpatch)
Protocol: Inhibition experiment of compounds on hERG potassium ion channel
Cell culture and treatment: CHO cells stably expressing hERG were cultured in cell culture flasks and incubated in a 5% CO2 incubator at 37°C. When a cell density reached 60%-80%, the cell culture medium was aspirated, washed once with PBS, and then digested with Detachin. After digestion, the grown cells were neutralized in the cell culture medium, and then centrifuged, the supernatant was aspirated, the cell culture medium was added again to resuspend the grown cells, and the cell density was adjusted to 2-5×10^6 cells/mL for later use.
Compound preparation: the compound stock solution was diluted in 100% DMSO, that is, 10 µL compound stock solution was serially diluted in 20 µL DMSO by 3 folds to obtain six concentrations. Six concentrations of the compound (4 µL for each concentration) were diluted in 396 µL extracellular fluid by 100 folds to obtain six intermediate concentrations. Six intermediate concentrations of the compound (80 µL for each concentration) were diluted in 320 µL extracellular fluid by 5 folds to obtain final concentrations to be tested. […] DMSO in a final test concentration was not more than 0.2%, and DMSO at this concentration had no effect on the hERG potassium channel. The entire dilution process for compound preparation was performed using Bravo instrument.
Electrophysiological recording process: the processes of single-celled high-impedance sealing and whole-cell mode formation were all automatically completed by Qpatch instrument, under the whole-cell recording mode, the cells were clamped at -80 mV, before 5-second + 40 mV depolarization stimulus, the cells were given 50-millisecond - 50 mV pre-voltage, followed by repolarization to -50 mV for 5 seconds, and then returning to -80 mV. The voltage stimulus was given every 15 seconds, after 2 minutes of recording, extracellular fluid was recorded for 5 min, and then a drug was administrated, started from a lowest test concentration, each test concentration of the compound was given for 2.5 minutes, after all concentrations were given consecutively, a positive control compound Cisapride (3 µM) was given. At least 3 cells were tested for each concentration (n≥3).
Data processing: data analysis and processing were performed using GraphPad Prism 5.0 and Excel software. IC50 values of the compounds were calculated by fitting with the following equation using GraphPad Prism 5 software: Y = Bottom + (Top−Bottom)/(1+10^(∧)((LogIC50−X)*HillSlope)); [formula] where X is the Log value of the test sample concentration, Y is an inhibition percentage at a corresponding concentration, and Bottom and Top are the minimum and maximum inhibition percentages, respectively.

LPS-induced mice = experiment: LPS-induced mouse model, survival; format: in vivo, Balb/c mice; conditions: for survival status of mice (mice alive) 12h / survival status of mice (mice alive) 24h / survival status of mice (mice alive) 36h / survival status of mice (mice alive) 48h / survival status of mice (mice alive) 72h: 25 mg/kg
[4] = PO, Balb/c mice, read-out: AUC(0-t)
[5] = PO, Balb/c mice, read-out: Cmax
[6] = PO, Balb/c mice, read-out: T1/2 (converted)
[7] = THP-1 cells, PMA, LPS 1 µg/mL 3 h, drug 40 min, Nigericin 10 µM 40 min, IL-1β ELISA, read-out: IC50
[8] = male, mouse, brain/plasma, po, 10 mg/kg
[9] = male, mouse, plasma, po, 10 mg/kg

T1 sequence (Q96P20 whole entry): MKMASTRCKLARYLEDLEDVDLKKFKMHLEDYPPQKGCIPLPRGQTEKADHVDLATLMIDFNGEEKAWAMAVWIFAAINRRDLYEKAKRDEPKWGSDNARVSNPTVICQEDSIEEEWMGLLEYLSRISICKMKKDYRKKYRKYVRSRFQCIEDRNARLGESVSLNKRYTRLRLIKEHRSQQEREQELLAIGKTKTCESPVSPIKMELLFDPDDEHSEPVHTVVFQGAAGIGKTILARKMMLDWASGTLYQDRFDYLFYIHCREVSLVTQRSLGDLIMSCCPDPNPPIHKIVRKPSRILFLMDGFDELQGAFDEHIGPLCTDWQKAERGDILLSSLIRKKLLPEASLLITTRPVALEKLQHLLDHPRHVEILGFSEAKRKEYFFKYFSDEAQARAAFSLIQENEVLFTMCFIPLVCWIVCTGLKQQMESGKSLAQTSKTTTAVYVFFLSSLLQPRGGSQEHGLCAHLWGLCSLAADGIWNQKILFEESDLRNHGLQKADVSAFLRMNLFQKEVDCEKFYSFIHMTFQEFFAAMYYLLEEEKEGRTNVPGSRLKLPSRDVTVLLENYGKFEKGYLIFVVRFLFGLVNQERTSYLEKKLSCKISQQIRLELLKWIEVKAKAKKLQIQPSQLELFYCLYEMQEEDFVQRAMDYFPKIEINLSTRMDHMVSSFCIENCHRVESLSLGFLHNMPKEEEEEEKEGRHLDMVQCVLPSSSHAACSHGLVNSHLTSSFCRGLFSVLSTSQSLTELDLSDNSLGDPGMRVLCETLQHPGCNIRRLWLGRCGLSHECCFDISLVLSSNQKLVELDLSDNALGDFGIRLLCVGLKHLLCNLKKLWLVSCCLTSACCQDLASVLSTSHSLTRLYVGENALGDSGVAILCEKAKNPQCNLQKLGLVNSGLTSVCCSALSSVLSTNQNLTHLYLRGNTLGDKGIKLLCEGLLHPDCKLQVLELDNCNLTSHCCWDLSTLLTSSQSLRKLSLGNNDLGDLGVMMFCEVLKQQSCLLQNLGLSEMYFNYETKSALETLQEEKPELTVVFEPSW
hERG potassium ion channel, sequence (Q12809 whole entry): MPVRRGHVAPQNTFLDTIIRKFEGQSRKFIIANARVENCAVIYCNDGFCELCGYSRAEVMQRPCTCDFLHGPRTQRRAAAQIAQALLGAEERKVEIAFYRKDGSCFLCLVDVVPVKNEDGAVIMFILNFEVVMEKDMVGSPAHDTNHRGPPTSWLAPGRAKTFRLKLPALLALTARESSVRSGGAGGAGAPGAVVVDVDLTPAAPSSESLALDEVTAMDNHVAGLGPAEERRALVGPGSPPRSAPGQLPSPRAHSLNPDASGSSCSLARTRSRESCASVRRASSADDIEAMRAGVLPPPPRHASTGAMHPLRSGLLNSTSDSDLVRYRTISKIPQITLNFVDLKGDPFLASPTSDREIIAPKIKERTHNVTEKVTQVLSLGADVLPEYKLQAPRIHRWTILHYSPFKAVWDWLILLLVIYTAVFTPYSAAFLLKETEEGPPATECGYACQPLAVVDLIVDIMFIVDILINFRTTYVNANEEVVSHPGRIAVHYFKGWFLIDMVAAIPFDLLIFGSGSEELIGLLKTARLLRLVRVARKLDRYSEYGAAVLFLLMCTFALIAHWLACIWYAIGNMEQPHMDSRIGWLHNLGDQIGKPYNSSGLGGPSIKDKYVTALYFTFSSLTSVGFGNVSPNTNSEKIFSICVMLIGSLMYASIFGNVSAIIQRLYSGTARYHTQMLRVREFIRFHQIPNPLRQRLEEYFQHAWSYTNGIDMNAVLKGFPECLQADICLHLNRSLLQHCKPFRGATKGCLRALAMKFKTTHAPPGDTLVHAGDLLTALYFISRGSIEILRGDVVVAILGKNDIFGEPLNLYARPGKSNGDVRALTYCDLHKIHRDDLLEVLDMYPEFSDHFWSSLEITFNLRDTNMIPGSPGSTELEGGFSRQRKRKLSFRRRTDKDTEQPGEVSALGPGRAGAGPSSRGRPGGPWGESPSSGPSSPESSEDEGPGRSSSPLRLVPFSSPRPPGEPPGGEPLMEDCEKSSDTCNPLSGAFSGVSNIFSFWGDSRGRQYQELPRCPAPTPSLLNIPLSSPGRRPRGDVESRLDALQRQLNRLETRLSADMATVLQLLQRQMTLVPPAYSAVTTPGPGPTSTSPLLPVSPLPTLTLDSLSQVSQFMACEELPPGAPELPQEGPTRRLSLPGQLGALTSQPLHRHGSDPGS

| SMILES | IC50 (NLRP3 inflammasome) [nM] | AUC(0-t) [1, 4] [ng·h/mL] | Cmax [1, 5] [ng/mL] | half-life [1, 6] [h] | IC50 (NLRP3 inflammasome; read-out: IC50) [nM] | also measured |
| --- | --- | --- | --- | --- | --- | --- |
| CCN1CCC[C@@H](Nc2nnc(-c3ccc4c(c3O)CCC4=C(F)F)n(C)c2=O)C1 [Compound 2, (R)-3-(1-(difluoromethylene)-4-hydroxy-2,3-dihydro-1H-inden-5-yl)-6-((1-ethylpiperidin-3-y 1)amino)-4-methyl-1,2,4-triazin-5(4H)-ketone] | 4.86 | 15200 | 2690 | 2.82 | – | – |
| CC(C)N1CCC[C@@H](Nc2nnc(-c3ccc4sccc4c3O)n(C)c2=O)C1 [Compound 36] | 1.55 | 3320 | 1510 | 1.24 | – | – |
| CN1C[C@H](F)C[C@@H](Nc2nnc(-c3ccc4sc(F)cc4c3O)n(C)c2=O)C1 [Compound 52, 3-(2-fluoro-4-hydroxybenzo[b]thiophen-5-yl)-6-{[(3R,5R)-5-fluoro-1-methylpiperidin-3-yl]amino}-4-methyl-4H,5H-1,2,4-triazin-5-ketone] | 5.06 | 21400 | 8570 | 3.16 | – | – |
| CCN1CCC[C@@H](Nc2nnc(-c3ccc4sccc4c3O)n(CC)c2=O)C1 [Compound 12, (R)-4-ethyl-6-((1-ethylpiperidin-3-yl)amino)-3-(4-hydroxybenzo[b]thiophen-5-yl)-1,2,4-triazi n-5(4H)-ketone] | – | – | – | – | – | IC50 (NLRP3 inflammasome; [7]): 7.2 nM; AUC(0-t) ([1]; male, Balb/c, po): 12800 ng·h/mL; Cmax ([1]; male, Balb/c, po): 2740 ng/mL; half-life ([1]; male, Balb/c, po): 3.08 h; Brain ([2]; 1 h): 498 ng/g; Brain ([2]; 6 h): 215 ng/g; Kp at 1 h [2, 8]: 0.13; Kp at 6 h [2, 8]: 0.13; concentration at 1 h [2, 9]: 3840 ng/mL; concentration at 6 h [2, 9]: 1700 ng/mL; 20 uM Inhibition ratio [3]: 52.99% |
| Cc1nc(N[C@@H]2CCCC[C@H]2O)nnc1-c1ccc(C(F)(F)F)cc1O [Ref-2, reference compound] | 14.7 | 270 | 246 | 2.6 | – | 72h Survival rate (LPS-induced mice; 25 mg/kg oral, 1 h before 10 mg/kg LPS i.p.): 50%; survival status of mice (mice alive) 12h (LPS-induced mice; First cage (5 mice)): 5; survival status of mice (mice alive) 24h (LPS-induced mice; First cage (5 mice)): 5; survival status of mice (mice alive) 36h (LPS-induced mice; First cage (5 mice)): 4; survival status of mice (mice alive) 48h (LPS-induced mice; First cage (5 mice)): 2; survival status of mice (mice alive) 72h (LPS-induced mice; First cage (5 mice)): 2; survival status of mice (mice alive) 12h (LPS-induced mice; Second cage (5 mice)): 5; survival status of mice (mice alive) 24h (LPS-induced mice; Second cage (5 mice)): 4; survival status of mice (mice alive) 36h (LPS-induced mice; Second cage (5 mice)): 4; survival status of mice (mice alive) 48h (LPS-induced mice; Second cage (5 mice)): 3; survival status of mice (mice alive) 72h (LPS-induced mice; Second cage (5 mice)): 3; Brain ([2]; 1 h): 168 ng/g; Plasma ([2]; 1 h): 264 ng/mL; Plasma ([2]; 6 h): 8.27 ng/mL; Kp at 1 h ([2]; mouse, brain, po, 10 mg/kg): 0.63; Kp at 6 h ([2]; mouse, brain, po, 10 mg/kg): 0.17 |
| [2H]C([2H])([2H])n1c(-c2ccc3sccc3c2O)nnc(N[C@@H]2CCCN(CC)C2)c1=O [Compound 55, (R)-6-((1-ethylpiperidin-3-yl)amino)-3-(4-hydroxybenzo[b]thiophen-5-yl)-4-(methyl-d3)-1,2,4-triazin-5(4H)-ketone] | 3.5 | 7450 | 1710 | 2.91 | – | – |
| Cn1c(-c2ccc3sccc3c2O)nnc(N[C@@H]2CCCN(CC3CC3)C2)c1=O [Compound 8, (R)-6-((1-(cyclopropylmethyl)piperidin-3-yl)amino)-3-(4-hydroxybenzo[b]thiophen-5-yl)-4-methyl-1,2,4-triazin-5(4H)-ketone] | – | – | – | – | – | IC50 (NLRP3 inflammasome; [7]): 1.92 nM; 20 uM Inhibition ratio [3]: 69.48% |
| CCN1C[C@H](F)C[C@@H](Nc2nnc(-c3ccc(C4CC4)cc3O)n(C)c2=O)C1 [Compound 53, 3-(4-cyclopropyl-2-hydroxyphenyl)-6-(((3R,5R)-1-ethyl-5-fluoropiperidin-3-yl)amino)-4-met hyl-1,2,4-triazin-5 (4H)-ketone] | 18.7 | 1400 | 1420 | 3.85 | – | – |
| [2H]C([2H])([2H])C([2H])([2H])N1CCC[C@@H](Nc2nnc(-c3ccc4sccc4c3O)n(C)c2=O)C1 [Compound 6, (R)-6-((1-(ethyl-d5)piperidin-3-yl)amino)-3-(4-hydroxybenzo[b]thiophen-5-yl)-4-methyl-1,2,4-triazin-5(4H)-ketone] | 3.01 | 8300 | 1340 | 3.18 | – | – |
| CN1CCC[C@@H](Nc2nnc(-c3ccc(C(F)(F)F)cc3O)n(C)c2=O)C1 [Ref-3, reference compound] | – | 1820 | 1140 | 0.87 | – | IC50 (NLRP3 inflammasome; [7]): 6.49 nM |
| CN1CCC[C@@H](Nc2nnc(-c3ccc4c(c3O)CCC4=C(F)F)n(C)c2=O)C1 [Compound 13, (R)-3-(1-(difluoromethylene)-4-hydroxy-2,3-dihydro-1H-inden-5-yl)-4-methyl-6-((1-methylpiperidin-3-yl)amino)-1,2,4-triazin-5 (4H)-ketone] | 1.36 | 98700 | 11400 | 5.47 | – | – |
| CN1CCC[C@@H](Nc2nnc(-c3ccc4ccccc4c3O)n(C)c2=O)C1 [Compound 18, (R)-3-(1-hydroxy-2-naphthyl)-4-methyl-6-((1-methylpiperidin-3-yl)amino)-1,2,4-triazin-5(4H )-ketone] | – | – | – | – | 25 | – |
| Cn1c(-c2ccc3ccccc3c2O)nnc(N[C@@H]2CCCN(CCO)C2)c1=O [Compound 20, (R)-6-((1-(2-hydroxyethyl)piperidin-3-yl)amino]-3-(1-hydroxynaphthalen-2-yl)-4-methyl-1,2,4-triazin-5(4H)-ketone] | – | – | – | – | 35.1 | – |
| CC#Cc1ccc(-c2nnc(N[C@@H]3CCCN(CC)C3)c(=O)n2C)c(O)c1 [Compound 28, (R)-6-((1-ethylpiperidin-3-yl)Jamino)-3-(2-hydroxy-4-(prop-1-yn-1-yl)phenyl)-4-methyl-1,2,4-triazin-5(4H)-ketone] | – | – | – | – | 29.6 | – |
| COCCn1c(-c2ccc3sccc3c2O)nnc(N[C@@H]2CCCN(C)C2)c1=O [Compound 51, 3-(4-hydroxybenzo[b]thiophen-5-yl)-6-{[(3R)-1-methylpiperidin-3-yl]amino}-4-(2-methoxyethyl)-4H,5H-1,2,4-triazin-5-ketone] | 180 | 9780 | 2940 | 2.39 | – | – |
| C#Cc1ccc(-c2nnc(N[C@@H]3CCCN(CC)C3)c(=O)n2C)c(O)c1 [Compound 25, (R)-6-((1-ethylpiperidin-3-yl)amino)-3-(4-ethynyl-2-hydroxyphenyl)-4-methyl-1,2,4-triazin-5 (4H)-ketone] | – | – | – | – | – | IC50 (NLRP3 inflammasome; [7]): 6.7 nM |
| CCN1CCC[C@@H](Nc2nnc(-c3ccc4sccc4c3O)n(C3CC3)c2=O)C1 [Compound 22, (R)-4-cyclopropyl-6-((1-ethylpiperidin-3-yl)amino)-3-(4-hydroxybenzo[b]thiophen-5-yl)-1,2,4-triazin-5(4H)-ketone] | – | – | – | – | 2.57 | – |
| CN1CCC[C@@H](Nc2nnc(-c3ccc(C4CC4)cc3O)n(C)c2=O)C1 [Compound 39, (R)-3-(4-cyclopropyl-2-hydroxyphenyl)-4-methyl-6-((1-methylpiperidin-3-yl)amino)-1,2,4-tri azin-5(4H)-ketone] | – | – | – | – | 30 | – |
| C[C@H]1CC[C@@H](Nc2nnc(-c3ccc4sccc4c3O)n(C)c2=O)CN1C [Compound 50, 6-(((3R,6S)-1,6-dimethylpiperidin-3-yl)amino)-3-(4-hydroxybenzo[b]thiophen-5-yl)-4-methyl-1,2,4-triazin-5 (4H)-ketone] | – | – | – | – | 350 | – |
